From the CheMixHub viscosity set

Test: xn = mol fraction of the nth substance listed

CC(=O)O + CCOC(C)=O
viscosity [mPa·s], 101 kPa
Conditions | 298.15 K | 313.15 K
x1 = 0.1049 | 0.459 | –
x1 = 0.207 | 0.4949 | –
x1 = 0.3037 | 0.5331 | –
x1 = 0.399 | 0.5762 | –
x1 = 0.4985 | 0.6289 | –
x1 = 0.5996 | 0.689 | –
x1 = 0.6988 | 0.7668 | –
x1 = 0.8011 | 0.859 | –
x1 = 0.8742 | 0.943 | –
x2 = 0.102 | 0.97 | 0.791
x2 = 0.2035 | 0.867 | 0.707
x2 = 0.3037 | 0.771 | 0.634
x2 = 0.4101 | 0.697 | 0.579
x2 = 0.4979 | 0.644 | 0.538
x2 = 0.6006 | 0.582 | 0.488
x2 = 0.6962 | 0.543 | 0.454
x2 = 0.7971 | 0.499 | 0.419
x2 = 0.9048 | 0.46 | 0.388

ClCCCl + CCOC(C)=O
303.15 K, 101.3 kPa
Conditions | viscosity [mPa·s]
x2 = 0.099 | 0.679
x2 = 0.2036 | 0.6354
x2 = 0.3005 | 0.602
x2 = 0.3976 | 0.5686
x2 = 0.4996 | 0.5353
x2 = 0.6025 | 0.5057
x2 = 0.6983 | 0.4784
x2 = 0.7998 | 0.4505
x2 = 0.9034 | 0.4236

C1CCC2=[NH+]CCCN2CC1.c1c[n-]cn1 + CN(C)C=O
298.15 K, 100 kPa
Conditions | viscosity [mPa·s]
x1 = 0.0998 | 1.496
x1 = 0.1996 | 2.353
x1 = 0.2995 | 3.64
x1 = 0.3994 | 5.34
x1 = 0.4994 | 7.345
x1 = 0.5994 | 10.26
x1 = 0.6995 | 14.27
x1 = 0.7996 | 19.37
x1 = 0.8998 | 25.32

CCCC[n+]1ccn(C)c1.N[C@@H](CCC(=O)O)C(=O)[O-] + CO
Conditions | viscosity [mPa·s]
313.15 K, 101 kPa, x1 = 0.7005 | 19.95

ClCCCl + CO
viscosity [mPa·s], 101 kPa
Conditions | x2 = 0.1568 | x2 = 0.2369 | x2 = 0.4217 | x2 = 0.5374 | x2 = 0.6221 | x2 = 0.6906 | x2 = 0.7982 | x2 = 0.8393 | x2 = 0.912
303.15 K | 0.6585 | 0.6407 | 0.6125 | 0.6032 | 0.5936 | 0.5824 | 0.5696 | 0.5617 | 0.5488
313.15 K | 0.5772 | 0.5596 | 0.5318 | 0.5227 | 0.5094 | 0.5005 | 0.4915 | 0.4852 | 0.4762
323.15 K | 0.5169 | 0.499 | 0.4709 | 0.4587 | 0.4506 | 0.4422 | 0.4323 | 0.4255 | 0.4199

ClCCl + CO
303.15 K, 101.3 kPa
Conditions | viscosity [mPa·s]
x1 = 0.0146 | 0.5071
x2 = 0.0752 | 0.3905
x2 = 0.1326 | 0.3907
x2 = 0.1509 | 0.3917
x2 = 0.2315 | 0.3988
x2 = 0.3029 | 0.4078
x2 = 0.374 | 0.42
x2 = 0.407 | 0.4262
x2 = 0.5161 | 0.4475
x2 = 0.6525 | 0.4738
x2 = 0.7656 | 0.4932
x2 = 0.8581 | 0.5043
x2 = 0.9182 | 0.5081
x2 = 0.9595 | 0.5087

ClCCl + COC(=O)OC
viscosity [mPa·s], 101.33 kPa
Conditions | x2 = 0.0957 | x2 = 0.2018 | x2 = 0.3029 | x2 = 0.3958 | x2 = 0.5009 | x2 = 0.5996 | x2 = 0.6992 | x2 = 0.7599 | x2 = 0.9005
298.15 K | 0.4 | 0.423 | 0.441 | 0.458 | 0.472 | 0.485 | 0.495 | 0.5 | 0.52
303.15 K | 0.384 | 0.4 | 0.419 | 0.431 | 0.447 | 0.461 | 0.47 | 0.478 | 0.49
308.15 K | 0.374 | 0.385 | 0.399 | 0.409 | 0.42 | 0.43 | 0.44 | 0.448 | 0.461

ClCCl + COC(C)=O
298.15 K, 101 kPa
Conditions | viscosity [mPa·s]
x1 = 0.1033 | 0.374
x1 = 0.1903 | 0.383
x1 = 0.2995 | 0.391
x1 = 0.4016 | 0.398
x1 = 0.5007 | 0.404
x1 = 0.5991 | 0.41
x1 = 0.7017 | 0.414
x1 = 0.8034 | 0.416
x1 = 0.9104 | 0.418

ClCCCl + COCCO
298 K, 101.33 kPa
Conditions | viscosity [mPa·s]
x2 = 0.1031 | 0.803
x2 = 0.1362 | 0.811
x2 = 0.2067 | 0.83
x2 = 0.2908 | 0.882
x2 = 0.395 | 0.954
x2 = 0.5147 | 1.059
x2 = 0.5965 | 1.138
x2 = 0.6926 | 1.232
x2 = 0.7409 | 1.28
x2 = 0.9141 | 1.458

ClCCl + COCCO
298.15 K, 101 kPa
Conditions | viscosity [mPa·s]
x2 = 0.1103 | 0.5177
x2 = 0.2181 | 0.5832
x2 = 0.3235 | 0.6707
x2 = 0.4266 | 0.7669
x2 = 0.5274 | 0.8908
x2 = 0.626 | 1.029
x2 = 0.7225 | 1.168
x2 = 0.817 | 1.295
x2 = 0.9095 | 1.428

ClCCl + COCCOCCOC
298.15 K, 101.33 kPa
Conditions | viscosity [mPa·s]
x2 = 0.097 | 0.546
x2 = 0.1505 | 0.593
x2 = 0.2008 | 0.636
x2 = 0.2942 | 0.711
x2 = 0.3997 | 0.79
x2 = 0.4508 | 0.817
x2 = 0.5008 | 0.843
x2 = 0.5555 | 0.87
x2 = 0.598 | 0.891
x2 = 0.6948 | 0.921
x2 = 0.7543 | 0.938
x2 = 0.8003 | 0.955
x2 = 0.8967 | 0.975
x2 = 0.9205 | 0.98

ClCCl + COCCOCCOCCOCCOC
298.15 K, 101 kPa
Conditions | viscosity [mPa·s]
x2 = 0.017 | 0.459
x2 = 0.0332 | 0.51
x2 = 0.0557 | 0.586
x2 = 0.0844 | 0.681
x2 = 0.1417 | 0.909
x2 = 0.1831 | 1.075
x2 = 0.236 | 1.294
x2 = 0.2842 | 1.492
x2 = 0.292 | 1.519
x2 = 0.3401 | 1.699
x2 = 0.38 | 1.848
x2 = 0.4698 | 2.155
x2 = 0.5134 | 2.334
x2 = 0.6018 | 2.651
x2 = 0.6882 | 2.749
x2 = 0.7367 | 2.865
x2 = 0.8029 | 2.981
x2 = 0.8758 | 3.111
x2 = 0.9066 | 3.17
x2 = 0.9339 | 3.239

ClCCl + COc1ccccc1
303.15 K, 101.3 kPa
Conditions | viscosity [mPa·s]
x2 = 0.069 | 0.425
x2 = 0.321 | 0.527
x2 = 0.357 | 0.54
x2 = 0.4045 | 0.567
x2 = 0.6109 | 0.665
x2 = 0.658 | 0.688
x2 = 0.8807 | 0.82

O=S(=O)(O)O + COc1ccccc1
viscosity [mPa·s], 101 kPa
Conditions | x1 = 0.0892 | x1 = 0.2274 | x1 = 0.5064 | x1 = 0.6238 | x1 = 0.6321 | x1 = 0.6494 | x1 = 0.679 | x1 = 0.7207 | x1 = 0.746 | x1 = 0.9241
293.15 K | 1.46 | 3.17 | 41.69 | 260.3 | 172.8 | 263.5 | 317.9 | 262.1 | 201.3 | 34.68
303.15 K | 1.35 | 1.79 | 30.05 | 166 | 100.8 | 141.3 | 182 | 151.4 | 131.3 | 22.53
313.15 K | 1.25 | 2 | 23.8 | 87.9 | 70.2 | 79.44 | 105 | 83.3 | 71.9 | 16.6
323.15 K | 1.15 | 2.58 | 17.8 | 72.9 | 42.1 | 47.4 | 83.18 | 50.18 | 44.8 | 11.9
